Test results: patent publication US7345079B2, “Treatment of disorder related to low cyclic GMP levels” (Yung Shin Pharmaceuticals Industrial Co., Ltd, priority 2001, dated 2008)
pIC50: −log10 of the molar value.

How the values were obtained:
PDE 5 = molecular target: T1, PDE 5 (Homo sapiens, UniProt O76074); assay: Inhibition of PDE 5 (human platelet lysate, cGMP hydrolysis); type: biochemical; conditions: PDE 5 from washed human platelet supernatant; 10 μM cGMP; 37° C. 30 minutes; read-out: IC50 in inhibiting PDE 5
T1 construct: Washed human platelets were prepared by the method described in Teng et al; from tissue; host or cells: human platelets (sonicated lysate, 39,000×g supernatant)
Description: A suitable in vitro assay can be used to preliminarily evaluate the effect of a fused pyrazolyl compound on inhibiting a PDE, which hydrolyzes cGMP. For example, platelets are washed, suspended in a buffer, and disrupted by sonication to obtain a solution containing a PDE. A compound to be tested and cGMP (a substrate for the PDE) are added to the solution. Ophiophagus hannah snake venom is subsequently added to remove the phosphate in 5′-GMP (converted from cGMP by the PDE) to form uncharged guanosine. An ion-exchange resin is used to remove the remaining cGMP. The cGMP-free solution is then centrifuged, and an aliquot of the supernatant is taken for quantification of the uncharged guanosine in a liquid scintillation counter. Activity of the PDE is evaluated based on the amount of the uncharged guanosine. In vivo screening can be performed by following procedures well known in the art.
Washed human platelets were prepared by the method described in Teng et al. Biochem. Biophys. Acta. 1989, 990, 315-320, suspended in 50 mM pH 7.4 Tris-HCl buffer (containing 5 mM MgCl2), and then disrupted by sonication at 4° C. […] The cGMP-free solution thus obtained was then centrifuged, and 0.5 mL of the supernatant was taken for quantification of uncharged guanosine in a liquid scintillation counter.

| melting point | pIC50 (PDE 5) | Structure (SMILES) |
| --- | --- | --- |
| 109 to 110 °C | 5.46 | COc1ccc2c(-c3ccc(CO)o3)nn(Cc3ccccc3)c2c1 [Compound 1, 1-benzyl-3-(5′-hydroxymethyl-2′-furyl)-6-methoxyindazole] |
| 122 to 123 °C | – | OCc1ccc(-c2nn(Cc3ccccc3)c3cc4c(cc23)OCO4)o1 [Compound 4, 1-benzyl-3-(5′-hydroxymethyl-2′-furyl)-5,6-methylenedioxoindazole] |
